The test system of the assay is OSR1-GFP & SIX2-tdTomato reporter human iPS cell line. In words: SIX2-positive cell induction method 1, SIX2-tdTomato-positive cell rate by flow cytometer. Format: cell-based. The following applies: induction method 1; stage 3 medium with 5 ng/ml TGFβ1 and 0.5 μM Dorsomorphin, 15 to 22 days. The procedure: The OSR1-GFP & SIX2-tdTomato reporter human iPS cell line obtained by the method in Example 1 was cultured at 37° C. in a 2-5% CO2 atmosphere to become confluent on 10-cm dishes containing a primate ES/iPS cell medium (ReproCELL) supplemented with 5 ng/ml bFGF (Wako) with the use of SNL cells (McMahon, A. P. and Bradley, A. (1990) Cell 62; 1073-1085) (the cells being treated with 15.5 μg/ml mitomycin (Kyowa Hakko Kirin Co., Ltd.) for 2 to 3 hours and seeded at a density of 3×10^5 cells/10-cm dish) as feeder cells. A CTK solution (2.5% Trypsin (Invitrogen), 1 mg/ml Collagenase IV (Invitrogen), 0.1 M CaCl2, 10 mL KnockOut SR (Invitrogen), and 29.5 mL H2O) was added to dissociate the cells. After removal of the feeder cells, the dissociated cells were suspended in a DMEM/F12 medium containing 1 μM CHIR99021 (Stemgent, 04-0004), 100 ng/ml Activin A (R&D Systems, 338-AC), 1% GlutaMAX (100×) (Invitrogen, 35050-061), 2% FBS (Hyclone), and 0.5% PenStrep (Invitrogen, 10565). Then, the cell suspensions were transferred to a low cell binding plate (LOW CELL BIND 6 WELL DISH (Nunc, 145383)) such that each well contained one-third to one-sixth of the cell suspension obtained from the 10-cm dish, followed by suspension culture at 37° C. in a 5% CO2 atmosphere for 2 days.
The cell mass obtained at stage 1 was transferred to a 24-well or 6-well dish coated with Matrigel (BD Matrigel Matrix Growth Factor Reduced (BD Biosciences, 356230) (the dish being coated with 0.2 mg/ml Matrigel in DMEM and treated at 37° C. for 30 minutes or at 4° C. overnight) or a 24-well or 6-well dish coated with Synthemax (Corning Synthemax II-SC Substrate (Corning, 3535XX1)) (the dish being coated with Synthemax diluted 40-fold with sterile water and treated at room temperature for 2 hours). The medium was exchanged with a DMEM/F12 medium containing 1 μM CHIR99021, 100 ng/ml BMP7 (Recombinant human BMP7 (R&D Systems, 3534-BP)), 0.1% 2-mercaptoethanol (1000×) (Invitrogen, 21985), 1% GlutaMAX (100×), 10% KnockOut SR (Invitrogen), 0.1 mM MEM NEAA (Invitrogen, 11140), and 0.5% PenStrep, followed by adhesion culture at 37° C. in a 5% CO2 atmosphere for 3 to 6 days. In the case of culture for 3 days or more, the medium was exchanged every 3 days with a medium having the same conditions.
The medium was removed from the cells obtained at stage 2. The cells were washed with PBS and then the medium was exchanged with a DMEM/F12 medium containing 5 ng/ml TGFβ1 (Peprotech, 100-21C), 0.5 μM Dorsomorphin (AMPK Inhibitor, Compound C (Merck, 171260)), 0.1% 2-mercaptoethanol (1000×), 1% GlutaMAX (100×), 10% KnockOut SR, 0.1 mM MEM NEAA, and 0.5% PenStrep, followed by suspension culture at 37° C. in a 5% CO2 atmosphere for 15 to 22 days. In this case, the medium was exchanged every 3 days with a medium having the same conditions.
At stage 3 of SIX2-positive cell induction method 1, Dorsomorphin was replaced with 100 ng/ml Noggin (Peprotech), 0.5 μM LDN193189 (Axon MedChem, 1509), or 0.5 μM DMH1 (Tocris, 4126) for differentiation induction in the aforementioned manner.
At stage 3 of SIX2-positive cell induction method 1, TGFβ1 was exchanged with 50 μM IDE1 (Tocris) or 50 μM IDE2 (Tocris) for differentiation induction in the aforementioned manner.
At stage 3 of SIX2-positive cell induction method 1, Dorsomorphin was replaced with 0.5 μM LDN193189, while TGFβ1 with 10 ng/ml TGFβ2 (Peprotech) or 10 ng/ml TGFβ3 (R&D), for differentiation induction in the aforementioned manner. As a result, the SIX2-positive cell rates were 8.6% and 9.3%, respectively (FIGS. 2G and 2H).
In general terms: A flow cytometer gives signals particle by particle.

`c1cc(-c2cnn3cc(-c4ccc(OCCN5CCCCC5)cc4)cnc23)ccn1` [Dorsomorphin, 6-[4-(2-piperidin-1-yl-ethoxy)phenyl]-3-pyridin-4-yl-pyrazolo[1,5-a]pyrimidine]: the SIX2-tdTomato-positive cell rate is 21.5±2.0%.

“TGFβ1: TGFβ signaling activator protein (Peprotech)” had an SIX2-tdTomato-positive cell rate of 21.5±2.0%.

These data come from patent US11225642B2, “Method for producing renal progenitor cells” (KYOTO UNIVERSITY, priority 2013, dated 2022).
